Source: patent US11653649B2, “Antimicrobial composition including a dihydroxamic acid and methods of inhibiting microbial growth utilizing the same” (Kimberly-Clark Worldwide, Inc., priority 2017, dated 2023)
Marks after values point to notes of the source that are not given here.

What was measured:
[1] = test system: Pseudomonas aeruginosa (ATCC 9027); experiment: Anti-bacterial MIC, microbroth dilution; assay type: cell-based; conditions: for MIC v. P. aeruginosa: Tables 4 and 5, rounded values, wt %; for MIC (%) P. aeruginosa: pH 4.5, CAMHB, 37° C., 24 hours
Protocol: (§1) Method: Microbroth Dilution Method (96-well format).
(§2) Solvent: Sterile MilliQ water and 0.1 M Citrate Buffer pH 4.5
(§3) Media used: • Bacterial: Cation-Adjusted Mueller-Hinton Broth (CAMHB) • Fungi: RPMI-1640
(§4) Bacteria • Incubation Temperature: 37° C. • Incubation Time: 24 hours • Inoculum Size: 5×10(5) cfu/mL • Strains: • Staphylococcus aureus (ATCC 6538) • Escherichia coli (ATCC 8739) • Pseudomonas aeruginosa (ATCC 9027) • Burkholderia cepacia (ATCC 25416)
(§5) Fungi: • Incubation Temperature: • 25° C. (Candida albicans) • 35° C. […] . All solubilized and pH 4.5-adjusted test compounds were filter-sterilized before subjecting to MIC study. Positive control was also dissolved in the similar way. […] All the strains were inoculated on their respective agar medium and incubated under conditions/durations detailed above. • Preparation of inoculum: • The bacterial colony suspension in 0.85% saline was adjusted to 1 McFarland's standard using Densimat which was further diluted to 1:100 in CAMHB. The fungal suspension for inoculation was prepared in 0.85% saline from 6 days old culture (for mold, A. brasiliensis) and from 2 days old culture (for yeast, C. albicans) from Sabouraud Dextrose agar medium. Culture was scrapped/scooped from the plate, suspended in saline and the spores/cells counted using haemocytometer to provide a final inoculum of 5×10^4 cfu/mL. • 96-well Plate Preparation: • Minimum inhibitory concentration (MIC) is performed to determine potency of test compounds along with standard antibiotics against bacterial strains. Micro titer plates were prepared as per the CLSI recommendations. One hundred and seventy five microliters of Cation-adjusted Muller Hinton Broth (CAMHB) was added to the first column of a 96 well flat bottom plate, which is the media control. Second column is for the stocks of the test compounds and reference standards from which dilutions are made. Then 175 μL of CAMHB was added to the 5th, 8th and 11th columns, 75 μL of CAMHB to the 4th, 7th and 10th columns and 50 μL of CAMHB to the 3rd, 6th and 9th columns and the last column was the organism control. Antimicrobial Efficacy Testing

[2] = Determination of Aqueous Solubility (pH-4.5) by Miniaturized Shake Flask Method; assay type: physicochemical; conditions: ultrapure water pH 4.5, 22° C., highest test concentration 1% w/v
Protocol: Determination of Aqueous Solubility (pH-4.5) by Miniaturized Shake Flask Method
Test Media: Ultrapure water (pH-4.5) (18MΩDl water)
Test Concentration: 10 mg/ml
Incubation Details: 22° C. +/−3° C.
Method of Analysis: Photometric analysis using Microplate reader
Data Output: Aqueous Solubility
Required volume of ultrapure water (˜75 mL) was taken and pH was adjusted to 4.5 using citrate buffer (pH-4.5). This water was used as a test media for determining the solubility of test/reference items.
Solubility Testing by Shake Flask Method
The solubility of test items were determined at a highest test concentration of 1% w/v (10 mg/mL).
40 mg of test items were weighed into tubes.
4 mL of Ultrapure water was added to all tubes to get a concentration of 10 mg/mL (1% w/v).
The initial pH of the solubility samples were recorded. […] Then, the solution were observed visually for any precipitation.
The visually soluble samples were centrifuged at 10000 rpm for 10 minutes at room temperature (22° C.±3° C.).
An aliquot of the supernatant were diluted with equal volume of methanol. The samples were further diluted in methanol: water (50:50) to obtain dilution of 1:2, 1:4, 1:16, 1:32 etc.
The samples were then transferred to UV plate and scanned at Amax of that particular test/reference item.

[3] = test system: Aspergillus brasiliensis (ATCC 16404); experiment: Anti-fungal MIC, microbroth dilution; assay type: cell-based; conditions: pH 4.5, RPMI-1640, 35° C., 48 hours
Protocol: as §1, §2, §3, §5

[4] = test system: Candida albicans (ATCC 10231); experiment: Anti-fungal MIC, microbroth dilution; assay type: cell-based; conditions: pH 4.5, RPMI-1640, 25° C., 48 hours
Protocol: as §1, §2, §3, §5

[5] = test system: Escherichia coli (ATCC 8739); experiment: Anti-bacterial MIC, microbroth dilution; assay type: cell-based; conditions: pH 4.5, CAMHB, 37° C., 24 hours
Protocol: as §1, §2, §3, §4, §5

[6] = test system: Burkholderia cepacia (ATCC 25416); experiment: Anti-bacterial MIC, microbroth dilution; assay type: cell-based; conditions: pH 4.5, CAMHB, 37° C., 24 hours
Protocol: as §1, §2, §3, §4, §5

[7] = test system: Staphylococcus aureus (ATCC 6538); experiment: Anti-bacterial MIC, microbroth dilution; assay type: cell-based; conditions: pH 4.5, CAMHB, 37° C., 24 hours
Protocol: as §1, §2, §3, §4, §5

[8] = test system: various bacteria and fungi; experiment: Antimicrobial Efficacy Testing (USP 51), overall outcome; assay type: cell-based; conditions: USP 51, 28 days
Text: The Antimicrobial Efficacy Testing discussed herein was completed pursuant to the standard antimicrobial effectiveness test from Chapter 51 of the United States Pharmacopeia (USP 51), in which an antimicrobial composition can be tested against at least five microorganisms, including bacteria and fungi. In the Antimicrobial Efficacy Testing conducted herein, the following bacteria were utilized: Staphylococcus aureus, Escherichia coli, Pseudomonas aeruginosa, and Burkholderia cepacia; and the following fungi were utilized: Candida albicans, and Aspergillus brasiliensis. While one of ordinary skill in the art could replicate such Antimicrobial Efficacy Testing by completing USP 51 protocol, a brief summary was that each antimicrobial composition sample was tested against each microorganism being held at room temperature over the course of 28 days, with each sample being evaluated at specific intervals at the beginning of the Testing (initial), day 7, day 14, and day 28. The test sample colonies were counted at each interval to determine the number of surviving microorganisms. The log reduction of each microorganism at each interval was reported. The effectiveness of the antimicrobial agent sample was based on the USP 51 passing criteria.

## O=[N+]([O-])C(Br)(CO)CO [2-Bromo-2-Nitropropane-1,3-Diol, reference compound]
[1]
  MIC v. P. aeruginosa: 0.00%

## O=C(O)c1ccccc1 [Benzoic Acid, reference compound]
[1]
  MIC v. P. aeruginosa: 0.07%

## OCc1ccccc1 [Benzyl Alcohol, reference compound]
[1]
  MIC v. P. aeruginosa: 0.35%

## CCCCCCCC(=O)NO [Caprylhydroxamic Acid, reference compound]
[2]
  Solubility (wt %): 0.1358 wt %
[3]
  MIC (%) A. brasiliensis: 0.004%
[4]
  MIC (%) C. albicans: 0.008%
[1]
  MIC v. P. aeruginosa: 0.07%
  MIC (%) P. aeruginosa: 0.0679%
[5]
  MIC (%) E. coli: 0.017%
[6]
  MIC (%) B. cepacia: 0.017%
[7]
  MIC (%) S. Aureus: 0.034%

## CCCCCC(=O)NO [Compound No. 1, Hexylhydroxamic Acid]
[2]
  Solubility (wt %): >1.00 wt %
[3]
  MIC (%) A. brasiliensis: 0.008%
[4]
  MIC (%) C. albicans: 0.031%
[1]
  MIC v. P. aeruginosa: 0.06%
  MIC (%) P. aeruginosa: 0.0625%
[5]
  MIC (%) E. coli: 0.125%
[6]
  MIC (%) B. cepacia: 0.0625%
[7]
  MIC (%) S. Aureus: 0.25%

## CCCCCCCCCC(=O)NO [Compound No. 3, Decylhydroxamic Acid]
[2]
  Solubility (wt %): 0.0025 wt %
[3]
  MIC (%) A. brasiliensis: >0.00125* %
[4]
  MIC (%) C. albicans: >0.00125* %
[1]
  MIC v. P. aeruginosa: >0.00125%*
  MIC (%) P. aeruginosa: >0.00125* %
[5]
  MIC (%) E. coli: >0.00125* %
[6]
  MIC (%) B. cepacia: >0.00125* %
[7]
  MIC (%) S. Aureus: >0.00125* %

## O=C(NO)c1ccccc1 [Compound No. 5, Benzhydroxamic Acid]
[2]
  Solubility (wt %): >1.00 wt %
[3]
  MIC (%) A. brasiliensis: 0.016%
[4]
  MIC (%) C. albicans: 0.031%
[1]
  MIC v. P. aeruginosa: 0.06%
  MIC (%) P. aeruginosa: 0.0625%
[5]
  MIC (%) E. coli: 0.25%
[6]
  MIC (%) B. cepacia: 0.125%
[7]
  MIC (%) S. Aureus: 0.125%

## O=C(NO)c1ccc(O)cc1 [Compound No. 6, p-hydroxy Benzhydroxamic Acid]
[2]
  Solubility (wt %): >1.00 wt %
[3]
  MIC (%) A. brasiliensis: 0.25%
[4]
  MIC (%) C. albicans: >1.00* %
[1]
  MIC v. P. aeruginosa: 0.06%
  MIC (%) P. aeruginosa: 0.0625%
[5]
  MIC (%) E. coli: 0.0625%
[6]
  MIC (%) B. cepacia: 0.031%
[7]
  MIC (%) S. Aureus: 0.125%

## O=C(CC(O)C(=O)NO)NO (stereo not shown) [Compound No. 7, N, N′, 2-trihydroxy butane diamide]
[2]
  Solubility (wt %): >1.00 wt %
[3]
  MIC (%) A. brasiliensis: 0.008%
[4]
  MIC (%) C. albicans: 0.008%
[1]
  MIC v. P. aeruginosa: 0.03%
  MIC (%) P. aeruginosa: 0.031%
[5]
  MIC (%) E. coli: 0.016%
[6]
  MIC (%) B. cepacia: 0.016%
[7]
  MIC (%) S. Aureus: 0.008%

## O=C(CCC(=O)NO)NO [Compound No. 8, N, N′-dihydroxysuccinamide]
[2]
  Solubility (wt %): >1.00 wt %
[3]
  MIC (%) A. brasiliensis: 0.031%
[4]
  MIC (%) C. albicans: 0.25%
[1]
  MIC v. P. aeruginosa: 0.06%
  MIC (%) P. aeruginosa: 0.0625%
[5]
  MIC (%) E. coli: 0.031%
[6]
  MIC (%) B. cepacia: 0.031%
[7]
  MIC (%) S. Aureus: 0.016%

## O=C(CCCCCCC(=O)NO)NO [Compound No. 9, N, N′-dihydroxyoctanediamide]
[2]
  Solubility (wt %): 0.248 wt %
[3]
  MIC (%) A. brasiliensis: >0.124* %
[4]
  MIC (%) C. albicans: >0.124* %
[8]
  Antimicrobial Efficacy Testing outcome (inhibiting growth of various bacteria and fungi): did not pass
[1]
  MIC v. P. aeruginosa: >0.12%*
  MIC (%) P. aeruginosa: >0.124* %
[5]
  MIC (%) E. coli: >0.124* %
[6]
  MIC (%) B. cepacia: >0.124* %
[7]
  MIC (%) S. Aureus: >0.124* %

## CC1(C)C(=O)N(CO)C(=O)N1CO [DMDM Hydantoin, reference compound]
[1]
  MIC v. P. aeruginosa: 0.02%

## CC(=O)C1C(=O)C=C(C)OC1=O (stereo not shown) [Dehydroacetic Acid, reference compound]
[1]
  MIC v. P. aeruginosa: 2.00%

## O=C(NCO)N(CO)C1(CO)C(=O)NC(=O)N1CO (stereo not shown) [Diazolidinyl Urea, reference compound]
[1]
  MIC v. P. aeruginosa: 0.10%

## Cn1sccc1=O [Methylisothiazolinone, reference compound]
[1]
  MIC v. P. aeruginosa: 0.00%

## COC(=O)c1ccc(O)cc1 [Methylparaben, reference compound]
[1]
  MIC v. P. aeruginosa: 0.20%

## OCCc1ccccc1 [Phenethyl Alcohol, reference compound]
[1]
  MIC v. P. aeruginosa: 0.41%

## CCCCCCCCCCCC(=O)NO [compound 2, Laurylhydroxamic Acid]
[2]
  Solubility (wt %): 0.0022 wt %
[3]
  MIC (%) A. brasiliensis: >0.0011* %
[4]
  MIC (%) C. albicans: >0.0011* %
[1]
  MIC (%) P. aeruginosa: >0.0011* %
[5]
  MIC (%) E. coli: >0.0011* %
[6]
  MIC (%) B. cepacia: >0.0011* %
[7]
  MIC (%) S. Aureus: >0.0011* %

## Propylhydroxamic Acid [reference compound]
[1]
  MIC v. P. aeruginosa: 0.50%
